Laboratory results: patent US20100267732A1, “Prognostic Molecular Markers for ET-743 Treatment” (PHARMA MAR, S.A., priority 2007, published 2010)

Tests used:
[1] = test system: sarcoma; test: Clinical outcome of sarcoma patients treated with ET-743 (Example 2, 168 patients; by XPG SNP Asp1104His genotype, XPG mRNA, XPG protein); assay type: in vivo, human; design: surviving patients at two years after treatment / Tumor Control Rate (CR+PR+MR+SD≧6 mo) / patients achieving progression free survival ≧6 months (PFS6) / survival at 12 months / rate of survival after 2 years: concentration or dose not given beside the values
Procedure: In this study, 168 paraffin embedded tumor samples from sarcoma patients before the treatment with any chemotherapy agent have been evaluated.
(§1) The majority of patients were treated before with one or several chemotherapy agents and later they followed a treatment with ET-743. The dosage of intravenous infusion (IV) of ET-743 given to the different patients was within the range of 1.650-1.0 mg/m^2; the schedules were 24 hours or 3 hour IV infusion with a three week interval between cycles; and the number of cycles ranged from 1 up to 44 cycles in some patients.
The clinical data from the patients was collected in the clinical data collection form and matched with the molecular data (Table 5)
A total of 168 paraffin embedded tumor samples providing evaluable results for at least one of the biomarkers (XPGmRNA, XPG protein, XPGAsp1104His or BRCA 1 mRNA) were analysed.

[2] = test system: sarcoma; test: Clinical outcome of sarcoma patients treated with ET-743 (Example 1, 160 patients; by XPG mRNA, XPG protein, BRCA1 mRNA); assay type: in vivo, human; design: Tumor Control Rate (CR+PR+MR+SD 6 mo) / patients achieving progression free survival 6 months (PFS6) / survival at 12 months: concentration or dose not given beside the values
Procedure: In this study, 160 paraffin embedded tumor samples from sarcoma patients before the treatment with any chemotherapy agent have been evaluated.
as §1
The clinical data from the patients was collected in the clinical data collection form and matched with the molecular data after completion of the mRNA and protein expression levels determination (Table 1).
SAS v8.2 (statistical software) was used for all the statistical analysis. The statistical techniques for univariate, bivariate and multivariate variables were chosen, according with the nature of variables that will be analysed, i.e. when the dependent variable is a temporal variable with censor status the Cox regression would be applied, when correlation between variables will be computed the Pearson and/or Spearman measures would be used. P-values below 0.05 will be considered statistically significant in all tests, when appropriate 95% confidence intervals will be presented too.
A total of 160 paraffin embedded tumor samples providing evaluable results for mRNA or protein expression were analysed. […] These samples came from sarcoma patients before being treated with a chemotherapy agent.

[3] = whole cohort, 51 patients still censored
[4] = whole cohort, Kaplan-Meier (FIG. 8)
[5] = high vs low XPG mRNA subpopulation
[6] = high vs low XPG protein subpopulation
[7] = intermediate subpopulation (high BRCA1 and high XPG, or low BRCA1 and low XPG)

## COc1cc2c(cc1O)CCN[C@]21CS[C@@H]2c3c(OC(C)=O)c(C)c4c(c3[C@H](COC1=O)N1[C@@H]2[C@H]2c3c(cc(C)c(OC)c3O)C[C@@H]([C@@H]1O)N2C)OCO4 [ET-743, ecteinascidin 743]
[1]; 147 evaluable patients
  Minor Responses (MR): 6.8%
  Tumor Control Rate (CR+PR+MR+SD≧6 mo): 44.9%
  overall response rate (RR), Complete+Partial Responses: 15.6%
  patients achieving progression free survival ≧6 months (PFS6): 39.5%
[1]; Asp/Asp XPG (W), XPG mRNA < 1.55
  Median PFS: 1.8 months
[1]; Asp/Asp XPG (W), XPG protein 0 + 1
  Median PFS: 2.9 months
[1]; Asp/His + His/His XPG (H + M), XPG mRNA < 1.55
  Median PFS: 3.3 months
[1]; Asp/His + His/His XPG (H + M), XPG protein 0 + 1
  Median PFS: 3.3 months
[1]; H + M, XPG mRNA < 1.55
  Median OS: 9.0 months
  OS at 12 months: 39.1%
  PFS at 6 months: 31.3%
[1]; H + M, XPG mRNA >= 1.55
  Median OS: 5.0 months
  Median PFS: 2.9 months
  OS at 12 months: 36.9%
  PFS at 6 months: 15.4%
[1]; H + M, XPG protein 0 + 1
  Median OS: 6.2 months
  OS at 12 months: 23.7%
  OS at 24 months: 0%
  PFS at 6 months: 26.3%
[1]; H + M, XPG protein 2 + 3
  Median OS: 12.2 months
  Median PFS: 3.4 months
  OS at 12 months: 52.6%
  OS at 24 months: 0%
  PFS at 6 months: 27.3%
[1]; M+H genotype and high XPG mRNA expression
  rate of survival after 2 years: 0%
[1]; M+H genotype and low XPG mRNA expression
  rate of survival after 2 years: 39.1%
[1]; W genotype and high XPG mRNA expression
  rate of survival after 2 years: 66.9%
[1]; W genotype and low XPG mRNA expression
  rate of survival after 2 years: 28.9%
[1]; W, XPG mRNA < 1.55
  Median OS: 8.6 months
  OS at 12 months: 28.9%
  PFS at 6 months: 26.3%
[1]; W, XPG mRNA >= 1.55
  Median OS: 27.7 months
  Median PFS: 17.1 months
  OS at 12 months: 83.7%
  PFS at 6 months: 82.4%
[1]; W, XPG protein 0 + 1
  Median OS: 11.7 months
  OS at 12 months: 47.1%
  OS at 24 months: 40.4%
  PFS at 6 months: 44.0%
[1]; W, XPG protein 2 + 3
  Median OS: 27.7 months
  Median PFS: 8.0 months
  OS at 12 months: 90.0%
  OS at 24 months: 90.0%
  PFS at 6 months: 77.1%
[1]; genotype H
  Median PFS (KM): 3.4 months
  Median Survival (KM): 6.9 months
  PFS6 (KM): 34.6%
  survival at 12 months: 34.6%
[1]; genotype M
  CR + PR + MR + SD ≧ 6: 0
  Median PFS (KM): 1.6 months
  Median Survival (KM): 9.1 months
  PFS6 (KM): 0%
  survival at 12 months: 31.3%
[1]; genotype W
  Median PFS (KM): 6.4 months
  Median Survival (KM): 19.9 months
  PFS6 (KM): 50.8%
  survival at 12 months: 54%
[1]; whole cohort
  median duration of the response (CR+PR+MR): 7.83 months
[1]; [3]
  Median Survival: 9.6 months
[1]; whole cohort, Kaplan-Meier
  surviving patients at two years after treatment: 34.0%
[1]; [4]
  Median Survival: 15.4 months
  PFS6 rate: 40.2%
  median progression free survival: 3.4 months
[2]; 140 evaluable patients
  Minor Responses (MR): 7.1%
  Tumor Control Rate (CR+PR+MR+SD 6 mo): 47.1%
  overall response rate (RR), Complete+Partial Responses: 16.4%
  patients achieving progression free survival 6 months (PFS6): 41.4%
[2]; High BRCA1, High XPG
  CR + PR + MR + SD > 6: 11/26 (42%)
  Median PFS: 2.5 m
  Median Survival: 13.6 m
  PFS 6: 38.5%
  PFS > 6 Months rate: 9/26 (35%)
[2]; High BRCA1, Low XPG
  CR + PR + MR + SD > 6: 4/20 (20%)
  Median PFS: 2.5 m
  Median Survival: 6.6 m
  PFS 6: 22.2%
  PFS > 6 Months rate: 4/21 (19%)
[2]; High BRCA1 mRNA, High XPG mRNA
  CR + PR: 5/26 (19%)
[2]; High BRCA1 mRNA, Low XPG mRNA
  CR + PR: 0/20 (0%)
[2]; Low BRCA1, High XPG
  CR + PR + MR + SD > 6: 12/19 (63%)
  Median PFS: 7.3 m
  Median Survival: 15.4 m
  PFS 6: 55.7%
  PFS > 6 Months rate: 10/21 (48%)
[2]; Low BRCA1, Low XPG
  CR + PR + MR + SD > 6: 14/31 (45%)
  Median PFS: 3.4 m
  Median Survival: 11.7 m
  PFS 6: 35.5%
  PFS > 6 Months rate: 12/27 (61%)
[2]; Low BRCA1 mRNA, High XPG mRNA
  CR + PR: 3/19 (16%)
[2]; Low BRCA1 mRNA, Low XPG mRNA
  CR + PR: 6/31 (19%)
[2]; XPG mRNA < 1.55
  CR + PR: 6/59 (10%)
  CR + PR + MR + SD ≧ 6: 21/59 (36%)
  Median PFS (KM): 2.5 m
  Median Survival (KM): 9.3 m
  PFS6 (KM): 29.5%
  PFS ≧ 6 Months rate: 18/60 (30%)
[2]; XPG mRNA ≧ 1.55
  CR + PR: 11/57 (19%)
  CR + PR + MR + SD ≧ 6: 32/57 (56%)
  Median PFS (KM): 7.1 m
  Median Survival (KM): 19.1 m
  PFS6 (KM): 52.1%
  PFS ≧ 6 Months rate: 28/59 (47.5%)
[2]; XPG protein 0 + 1
  CR + PR + MR + SD ≧ 6: 27/64 (42%)
  Median PFS (KM): 3.7 m
  Median Survival (KM): 11.7 m
  PFS6 (KM): 39.9%
  PFS ≧ 6 Months: 26/64 (39%)
[2]; XPG protein 2 + 3
  CR + PR + MR + SD ≧ 6: 15/25 (60%)
  Median PFS (KM): 7.1 m
  Median Survival (KM): 27.7 m
  PFS6 (KM): 55.6%
  PFS ≧ 6 Months: 13/25 (50%)
[2]; XPG protein IHC score 0 + 1
  CR + PR: 8/64 (13%)
[2]; XPG protein IHC score 2 + 3
  CR + PR: 6/25 (24%)
[2]; high XPG expression (protein analysis, FIG. 5)
  survival at 12 months: 73.7%
[2]; high XPG mRNA expression
  survival at 12 months: 61.9%
[2]; [5]
  fold increase in objective response: 1.9 fold
  fold increase in tumor control rate: 1.6 fold
[2]; [6]
  fold increase in objective response: 1.85 fold
  fold increase in tumor control rate: 1.43 fold
[2]; [7]
  Median OS: 13.6 months
  Median PFS: 2.8 months
  PFS6 rate: 36.6%
[2]; low XPG mRNA expression
  survival at 12 months: 46.2%
[2]; low XPG protein expression
  survival at 12 months: 45.5%
[2]; whole cohort
  median duration of the response (CR+PR+MR): 7.83 months
[2]; [3]
  Median Survival: 10 months
[2]; whole cohort, Kaplan-Meier
  Median Survival: 17.7 months
  PFS6 rate: 42.1%
  median progression free survival: 3.8 months
